Here are results for 4 molecules from ChEMBL document CHEMBL4321885, “Biomimetic Macrocyclic Inhibitors of Human Cathepsin D: Structure-Activity Relationship and Binding Mode Analysis” (J Med Chem, 2020).

Each structure is given as a SMILES string. ≈ marks a conversion by molar mass, not a printed value. Calls of active or inactive are those of the source. The rule behind the calls is not given here.

Data set [1] in a line: Solubility of the compound in pH 7.4 phosphate buffered saline by HPLC-MS analysis. Type of data set: physicochemical.
The nature of data set [2]: Apparent permeability in human Caco2 cells at 5 uM measured after 5 hrs by LC-MS analysis. In kind it is ADME, cell-based. The following applies: Caco-2.
The subject of the next data set is NHDF. Nature of the data set: Cytotoxicity against NHDF cells assessed as reduction in cell viability up to 100 uM measured after 72 hrs by Celltiter-glo assay. Type of data set: cell-based. The conditions noted are these: human.
The test system of another data set is PBMC. In words: Cytotoxicity against human PBMC cells assessed as reduction in cell viability up to 100 uM measured after 72 hrs by Celltiter-glo assay. Type of data set: cell-based.
The next data set addresses Cathepsin D (Homo sapiens, UniProt P07339). Nature of the data set: Inhibition of human placenta CatD using Abz-Lys-Pro-Ala-Glu-Phe-Nph-Ala-Leu as substrate preincubated for 10 mins followed by substrate addition and measured by FRET assay.
The target of data set [3] is T1, Renin (Homo sapiens) (UniProt P00797).
T1 sequence (whole entry): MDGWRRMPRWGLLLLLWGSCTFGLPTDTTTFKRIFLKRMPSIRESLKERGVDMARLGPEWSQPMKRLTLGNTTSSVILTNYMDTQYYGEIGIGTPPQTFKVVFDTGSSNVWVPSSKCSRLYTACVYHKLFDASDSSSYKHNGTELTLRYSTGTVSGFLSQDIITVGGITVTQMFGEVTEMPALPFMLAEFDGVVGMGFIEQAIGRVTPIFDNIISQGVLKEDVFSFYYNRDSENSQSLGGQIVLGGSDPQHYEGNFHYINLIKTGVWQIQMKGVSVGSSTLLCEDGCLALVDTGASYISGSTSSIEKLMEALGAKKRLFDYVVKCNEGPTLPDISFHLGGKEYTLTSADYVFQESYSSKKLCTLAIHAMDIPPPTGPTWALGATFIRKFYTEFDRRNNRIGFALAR
Nature of the data set: Inhibition of recombinant human N-terminal FLAG-tagged renin (67 to 406 residues) expressed in HEK cells at 50 nM using Arg-Glu(EDANS)-Ile-His-Pro-Phe-His-Leu-Val-Ile-His-Thr-Lys(Dabcyl)-Arg as substrate preincubated for 10 mins followed by substrate addition and measured by FRET assay.

The target in data set [4] is Beta-secretase 1 (Homo sapiens) (UniProt P56817). Nature of the data set: Inhibition of recombinant human C-terminal 10His-tagged BACE1 expressed in mouse NS0 cells at 50 nM using Mca-Ser-Glu-Val-Asn-Leu-Asp-Ala-Glu-Phe-Arg-Lys(Dnp)-Arg-Arg as substrate preincubated for 10 mins followed by substrate addition and measured by FRET assay.
For data set [5], the target named is Protease (Human immunodeficiency virus 1) (UniProt Q9YQ12). In words: Inhibition of HIV1 protease at 50 nM using Abz-Tyr-Ile-Nle-Nph-Gln-Arg as substrate preincubated for 10 mins followed by substrate addition and measured by FRET assay.
The test system of a further data set is Ixodes ricinus. In words: Inhibition of Ixodes ricinus CatD expressed in Escherichia coli BL21(DE3) at 50 nM using Abz-Lys-Pro-Ala-Glu-Phe-Nph-Ala-Leu as substrate preincubated for 10 mins followed by substrate addition and measured by FRET assay.
The target in data set [6] is Saccharopepsin (Saccharomyces cerevisiae S288c) (UniProt P07267). Nature of the data set: Inhibition of Baker's yeast proteinase A at 50 nM using Abz-Lys-Pro-Ala-Glu-Phe-Nph-Ala-Leu as substrate preincubated for 10 mins followed by substrate addition and measured by FRET assay.
For the next data set, the target named is T2, Papain (Carica papaya, UniProt P00784).
T2 sequence (P00784 whole entry): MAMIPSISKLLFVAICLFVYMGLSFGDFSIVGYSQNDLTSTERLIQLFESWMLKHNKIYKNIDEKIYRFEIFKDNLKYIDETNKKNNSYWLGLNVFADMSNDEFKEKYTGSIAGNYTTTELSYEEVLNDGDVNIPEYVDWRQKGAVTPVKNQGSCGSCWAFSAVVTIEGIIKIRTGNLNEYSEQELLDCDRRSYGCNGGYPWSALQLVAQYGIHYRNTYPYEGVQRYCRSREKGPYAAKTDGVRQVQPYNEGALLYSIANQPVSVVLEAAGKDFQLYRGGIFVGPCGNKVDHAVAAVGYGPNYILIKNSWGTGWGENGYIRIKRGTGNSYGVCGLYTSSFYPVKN
Nature of the data set: Stability of the compound assessed as papaya papain-mediated compound hydrolysis at 25 ug measured after 18 hrs by HPLC analysis. Type of data set: ADME.

Data set [7] in a line: Stability of the compound assessed as bovine trypsin-mediated compound hydrolysis at 25 ug measured after 18 hrs by HPLC analysis. Type of data set: ADME, Bos taurus. The following applies: cattle.
Data set [8] in a line: Stability of the compound assessed as bovine chymotrypsin-mediated compound hydrolysis at 25 ug measured after 18 hrs by HPLC analysis. The following applies: cattle. Type of data set: ADME, Bos taurus.
A further data set concerns the target T3, Thermolysin (Geobacillus stearothermophilus, UniProt P43133).
T3 sequence (P43133 whole entry): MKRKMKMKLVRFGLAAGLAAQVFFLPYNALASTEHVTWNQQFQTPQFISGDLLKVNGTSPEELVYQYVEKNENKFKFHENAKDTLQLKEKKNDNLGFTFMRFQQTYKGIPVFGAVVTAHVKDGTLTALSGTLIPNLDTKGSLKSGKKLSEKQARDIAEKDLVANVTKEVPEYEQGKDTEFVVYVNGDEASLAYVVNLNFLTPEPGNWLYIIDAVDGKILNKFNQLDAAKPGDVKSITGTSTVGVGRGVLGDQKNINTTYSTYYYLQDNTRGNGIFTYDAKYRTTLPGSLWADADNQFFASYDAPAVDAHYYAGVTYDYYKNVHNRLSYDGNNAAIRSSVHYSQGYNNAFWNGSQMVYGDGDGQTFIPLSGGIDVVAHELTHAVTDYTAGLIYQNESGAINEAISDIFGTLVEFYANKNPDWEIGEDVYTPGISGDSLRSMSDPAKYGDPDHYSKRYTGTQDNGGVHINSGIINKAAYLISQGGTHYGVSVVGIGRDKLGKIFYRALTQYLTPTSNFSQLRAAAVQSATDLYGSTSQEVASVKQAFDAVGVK
Nature of the data set: Stability of the compound assessed as Geobacillus stearothermophilus thermolysin-mediated compound hydrolysis at 25 ug measured after 18 hrs by HPLC analysis. In kind it is ADME.

For the next data set, the target named is T4, Papain (Carica papaya) (UniProt P00784).
T4 sequence (whole entry): T2 sequence (P00784 whole entry)
Nature of the data set: Inhibition of papaya papain at 1 uM using Z-Phe-Arg-AMC as substrate preincubated for 10 mins followed by substrate addition and measured after 20 mins by fluorescence assay.

Data set [9] is filed under the species Bos taurus. In words: Inhibition of bovine trypsin at 1 uM using Z-Phe-Arg-AMC as substrate preincubated for 10 mins followed by substrate addition and measured after 20 mins by fluorescence assay.
For data set [10], the species on record is Bos taurus. Nature of the data set: Inhibition of bovine chymotrypsin at 1 uM using Z-Phe-Arg-AMC as substrate preincubated for 10 mins followed by substrate addition and measured after 20 mins by fluorescence assay.
Data set [11] has as its target T5, Thermolysin (Geobacillus stearothermophilus) (UniProt P43133).
T5 sequence (whole entry): T3 sequence (P43133 whole entry)
In words: Inhibition of Geobacillus stearothermophilus thermolysin at 1 uM using Abz-Ala-Gly-Leu-Ala-nitro-benzylamide as substrate preincubated for 10 mins followed by substrate addition and measured after 20 mins by fluorescence assay.

Data set [12] addresses T1, Renin (Homo sapiens). Nature of the data set: Inhibition of recombinant human N-terminal FLAG-tagged renin (67 to 406 residues) expressed in HEK cells at 5 uM using Arg-Glu(EDANS)-Ile-His-Pro-Phe-His-Leu-Val-Ile-His-Thr-Lys(Dabcyl)-Arg as substrate preincubated for 10 mins followed by substrate addition and measured by FRET assay.
The target in data set [13] is Beta-secretase 1 (Homo sapiens) (UniProt P56817). Nature of the data set: Inhibition of recombinant human C-terminal 10His-tagged BACE1 expressed in mouse NS0 cells at 5 uM using Mca-Ser-Glu-Val-Asn-Leu-Asp-Ala-Glu-Phe-Arg-Lys(Dnp)-Arg-Arg as substrate preincubated for 10 mins followed by substrate addition and measured by FRET assay.
In data set [14] the target is Protease (Human immunodeficiency virus 1) (UniProt Q9YQ12). Nature of the data set: Inhibition of HIV1 protease at 5 uM using Abz-Tyr-Ile-Nle-Nph-Gln-Arg as substrate preincubated for 10 mins followed by substrate addition and measured by FRET assay.
For another data set, the species on record is Sus scrofa. In words: Inhibition of porcine pepsin at 50 nM using Abz-Lys-Pro-Ala-Glu-Phe-Nph-Ala-Leu as substrate preincubated for 10 mins followed by substrate addition and measured by FRET assay.

One may read the solubility as the dissolved amount per volume that the medium holds. One may read the Papp as a coefficient for how fast a substance crosses the barrier. One may read the IC50 as the concentration needed to halve the response being measured. A low value points to greater potency in that assay.

Protease (Human immunodeficiency virus 1), sequence (Q9YQ12 as listed by the source): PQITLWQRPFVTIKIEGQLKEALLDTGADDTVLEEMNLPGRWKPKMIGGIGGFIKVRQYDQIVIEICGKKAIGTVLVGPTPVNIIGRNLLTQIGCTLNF
Cathepsin D, sequence (P07339 65-162 limits assumed): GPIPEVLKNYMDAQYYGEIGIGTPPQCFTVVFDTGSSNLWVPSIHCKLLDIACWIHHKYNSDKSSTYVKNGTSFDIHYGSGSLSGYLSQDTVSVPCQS
Cathepsin D, sequence (P07339 169-412 limits assumed): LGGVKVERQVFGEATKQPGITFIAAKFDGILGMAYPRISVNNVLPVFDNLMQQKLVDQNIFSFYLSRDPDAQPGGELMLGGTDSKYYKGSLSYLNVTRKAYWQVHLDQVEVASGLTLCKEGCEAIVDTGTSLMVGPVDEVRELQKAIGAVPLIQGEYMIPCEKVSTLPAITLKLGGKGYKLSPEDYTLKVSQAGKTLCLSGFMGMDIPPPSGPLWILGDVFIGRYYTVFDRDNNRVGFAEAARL
Beta-secretase 1 (Homo sapiens), sequence (P56817 whole entry): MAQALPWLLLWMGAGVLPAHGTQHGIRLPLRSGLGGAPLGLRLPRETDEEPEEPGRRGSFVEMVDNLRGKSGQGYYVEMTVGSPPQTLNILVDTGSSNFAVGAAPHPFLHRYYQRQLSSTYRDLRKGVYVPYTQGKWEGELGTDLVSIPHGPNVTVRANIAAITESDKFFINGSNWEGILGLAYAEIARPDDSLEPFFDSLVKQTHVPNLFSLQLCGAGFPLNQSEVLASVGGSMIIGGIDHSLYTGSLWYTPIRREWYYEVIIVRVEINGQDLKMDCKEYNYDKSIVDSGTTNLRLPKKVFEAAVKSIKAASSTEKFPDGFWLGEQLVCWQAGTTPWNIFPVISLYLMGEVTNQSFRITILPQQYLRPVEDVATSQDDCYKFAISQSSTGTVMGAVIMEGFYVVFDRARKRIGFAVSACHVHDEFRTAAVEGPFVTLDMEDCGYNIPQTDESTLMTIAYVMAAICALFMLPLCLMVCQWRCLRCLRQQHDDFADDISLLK
Saccharopepsin (Saccharomyces cerevisiae S288c), sequence (P07267 whole entry): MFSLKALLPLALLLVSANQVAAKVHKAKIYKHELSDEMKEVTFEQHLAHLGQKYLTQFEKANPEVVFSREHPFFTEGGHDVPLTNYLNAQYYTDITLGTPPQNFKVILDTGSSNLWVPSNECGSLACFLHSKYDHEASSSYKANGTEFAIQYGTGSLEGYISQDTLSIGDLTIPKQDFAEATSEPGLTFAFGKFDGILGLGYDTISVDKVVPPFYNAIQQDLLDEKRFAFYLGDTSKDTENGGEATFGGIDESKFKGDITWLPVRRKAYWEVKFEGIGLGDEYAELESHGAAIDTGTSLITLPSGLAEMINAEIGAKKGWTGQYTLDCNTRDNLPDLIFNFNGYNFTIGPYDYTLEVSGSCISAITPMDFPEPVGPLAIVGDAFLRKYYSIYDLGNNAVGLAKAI

Molecule `CC(C)CC(=O)N[C@H](C(=O)N[C@H](C(=O)N[C@@H](CC(C)C)[C@@H](O)CC(=O)N[C@@H](C)C(=O)N[C@@H](CC(C)C)[C@@H](O)CC(=O)O)C(C)C)C(C)C` [PEPSTATIN] registered a solubility in [1] of 197 µg/mL (≈ 287 µM). For the same molecule, the Papp at 5 h, 5 µM in [2] came to 0.11 ×10⁻⁶ cm/s. The Activity entry with NHDF and with PBMC was “Non-Toxic” in each case.

`CC(C)[C@@H]1NC(=O)C[C@H](O)[C@H](Cc2ccccc2)NC(=O)OCCCCCCCCCCCNC1=O` returned an IC50 against Cathepsin D of 2.5 nM. The Papp at 5 h, 5 µM in data set [2] was determined as 1.68 ×10⁻⁶ cm/s. Moreover, the Activity entry with NHDF and in the data set with PBMC was “Non-Toxic” throughout. In addition, the inhibition entry (on Renin (Homo sapiens) [3]; in [4]; in [5]; on Papain (Carica papaya); in the data set listed under Bos taurus [9]; in the data set filed under Bos taurus [10]) was “inactive” throughout. In addition, in data set [11], the inhibition entry was “inactive”. For the same molecule, the inhibition entry (with Ixodes ricinus; in [6]; at Renin (Homo sapiens) [12]; in data set [13]; in data set [14]) was “Active” each time. Moreover, the Stability result (at Papain; in [7]; in data set [8]; on Thermolysin) was “Stable” each time.

Molecule `CC(C)C[C@@H]1NC(=O)CCCCCCCCCCCNC(=O)[C@H](C(C)C)NC(=O)C[C@@H]1O` registered an IC50 at Cathepsin D of 22 nM. Moreover, the inhibition result (in the data set listed under Sus scrofa; in the data set with Ixodes ricinus; in data set [6]; at Renin (Homo sapiens) [12]; in [13]; in data set [14]) was “Active” each time. Further, the inhibition result (on Renin (Homo sapiens) [3]; in data set [4]; in data set [5]) was “inactive” each time.

Take `O=C1C[C@H](O)[C@H](Cc2ccccc2)NC(=O)CCCCCCCCCCCNC(=O)[C@H](Cc2cccnc2)N1`: at Cathepsin D, the IC50 is 1.1 nM. The same molecule came in with a solubility in data set [1] of 342 µg/mL (≈ 637 µM). Besides, the Activity entry in the data set with NHDF and in the data set with PBMC was “Non-Toxic” throughout. The inhibition entry (at Renin (Homo sapiens) [3]; in data set [4]; in data set [5]; on Papain (Carica papaya); in the data set filed under Bos taurus [9]; in the data set filed under Bos taurus [10]) was “inactive” in each case. In addition, in data set [11], the inhibition result was “inactive”. Besides, the inhibition result (in the data set with Ixodes ricinus; in data set [6]; on Renin (Homo sapiens) [12]; in [13]; in [14]) was “Active” in each case. Moreover, the Stability entry (on Papain; in data set [7]; in [8]; on Thermolysin) was “Stable” in each case.
